The values that follow come from patent US9376436B2, “2-(pyridin-2yl)-1, 7-diaza-spiro [4.4] nonane-6-one compound as voltage-gated sodium channels modulators” (CONVERGENCE PHARMACEUTICALS LIMITED, priority 2011, dated 2016).

The test concerns the target T1, hNaV1.7 (Homo sapiens, UniProt Q15858).
T1 construct: expressed in transfected cells; host or cells: HEK293
The test can be described thus: QPatch NaV1.7 assay (whole-cell patch clamp, QPatch16x). The format is cell-based. The following applies: HEK293-hNaV1.7 cells. An outline of the steps:
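HEK293 cells expressing hNaV1.7 recorded by automated whole-cell patch clamp (CsF internal, pH 7.3). Peak currents from 20 ms steps to 0 mV measured at holding potentials of −90 mV and V1/2 SSI; four-point cumulative concentrations, 120 s each, Hill fits gave pIC50 at each potential.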

[1] abbreviates: holding voltage V1/2 SSI (half of channels inactivated), read-out: QP Nav1.7 SSI vhalf pIC50 (converted).
The mark [2] stands for this setting: holding voltage −90 mV (most channels closed), read-out: QP Nav1.7 −90 mV pIC50 (converted).

Counter-ions that a name gives are not always drawn. Like-named read-outs stand apart in the source and are kept apart here.

T1 sequence (Q15858 whole entry): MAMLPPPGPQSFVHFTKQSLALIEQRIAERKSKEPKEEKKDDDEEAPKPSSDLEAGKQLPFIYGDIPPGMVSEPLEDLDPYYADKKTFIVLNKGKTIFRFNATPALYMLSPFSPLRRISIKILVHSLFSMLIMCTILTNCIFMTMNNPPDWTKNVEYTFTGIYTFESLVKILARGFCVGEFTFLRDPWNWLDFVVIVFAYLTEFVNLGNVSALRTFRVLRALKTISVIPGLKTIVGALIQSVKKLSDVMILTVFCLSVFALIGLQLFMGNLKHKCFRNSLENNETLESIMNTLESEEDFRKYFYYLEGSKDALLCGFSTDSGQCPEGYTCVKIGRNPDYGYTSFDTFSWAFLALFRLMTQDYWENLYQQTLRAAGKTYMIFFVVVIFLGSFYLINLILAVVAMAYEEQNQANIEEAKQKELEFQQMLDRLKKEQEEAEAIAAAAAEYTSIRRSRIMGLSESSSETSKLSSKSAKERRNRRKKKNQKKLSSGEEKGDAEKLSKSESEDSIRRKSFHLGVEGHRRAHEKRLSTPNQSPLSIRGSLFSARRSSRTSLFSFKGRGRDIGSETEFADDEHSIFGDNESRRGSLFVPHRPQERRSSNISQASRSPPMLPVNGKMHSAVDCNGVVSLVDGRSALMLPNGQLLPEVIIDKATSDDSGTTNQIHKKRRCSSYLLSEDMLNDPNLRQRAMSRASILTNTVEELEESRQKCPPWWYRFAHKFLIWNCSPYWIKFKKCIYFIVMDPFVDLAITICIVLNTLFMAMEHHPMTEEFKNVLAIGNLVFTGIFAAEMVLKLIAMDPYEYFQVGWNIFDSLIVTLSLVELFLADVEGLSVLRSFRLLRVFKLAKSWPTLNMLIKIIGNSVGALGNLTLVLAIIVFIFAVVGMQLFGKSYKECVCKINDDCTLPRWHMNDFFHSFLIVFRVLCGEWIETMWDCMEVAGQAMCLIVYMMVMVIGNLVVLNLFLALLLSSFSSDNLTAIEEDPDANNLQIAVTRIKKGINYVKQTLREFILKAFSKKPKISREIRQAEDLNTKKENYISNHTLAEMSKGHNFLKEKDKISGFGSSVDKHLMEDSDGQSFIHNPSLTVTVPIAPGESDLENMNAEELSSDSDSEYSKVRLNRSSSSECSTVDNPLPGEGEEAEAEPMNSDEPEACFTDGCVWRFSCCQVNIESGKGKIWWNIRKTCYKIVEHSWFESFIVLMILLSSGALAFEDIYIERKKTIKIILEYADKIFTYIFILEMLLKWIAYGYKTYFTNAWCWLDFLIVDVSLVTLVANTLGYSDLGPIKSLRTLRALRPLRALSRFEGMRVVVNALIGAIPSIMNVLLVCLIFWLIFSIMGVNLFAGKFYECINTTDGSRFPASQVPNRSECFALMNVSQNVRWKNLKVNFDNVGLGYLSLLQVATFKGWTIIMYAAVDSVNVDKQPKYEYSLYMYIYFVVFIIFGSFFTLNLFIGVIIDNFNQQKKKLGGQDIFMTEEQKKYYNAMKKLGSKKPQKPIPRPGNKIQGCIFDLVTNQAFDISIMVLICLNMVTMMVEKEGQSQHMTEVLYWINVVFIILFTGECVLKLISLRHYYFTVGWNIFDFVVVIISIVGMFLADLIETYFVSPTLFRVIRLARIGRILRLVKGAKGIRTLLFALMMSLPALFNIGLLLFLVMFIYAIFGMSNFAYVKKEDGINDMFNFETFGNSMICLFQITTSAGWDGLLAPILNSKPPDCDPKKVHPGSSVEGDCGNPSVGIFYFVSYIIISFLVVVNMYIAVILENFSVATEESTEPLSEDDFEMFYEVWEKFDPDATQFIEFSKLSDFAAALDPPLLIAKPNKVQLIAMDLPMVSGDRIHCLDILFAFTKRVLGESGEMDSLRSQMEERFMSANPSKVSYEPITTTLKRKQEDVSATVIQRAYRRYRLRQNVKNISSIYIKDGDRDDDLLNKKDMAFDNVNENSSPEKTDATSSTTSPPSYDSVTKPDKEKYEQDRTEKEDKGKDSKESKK

As to `Cc1cc(-c2ccc(C(F)(F)F)cc2)cc([C@@H]2CC[C@@]3(CCNC3=O)N2)n1` [Example 97, (2S,5S)-2-[6-Methyl-4-[4-(trifluoromethyl)phenyl]-2-pyridyl]-1,7-diazaspiro[4.4]nonan-6-one hydrochloride], the IC50 runs as follows: under setting [1], 1.26 µM; under setting [2], 20 µM.

Consider `Cc1cc(-c2ccc(C(F)(F)F)cc2)cc([C@@H]2CC[C@]3(CCCNC3=O)N2)n1` [Example 98, (2S,5S)-2-[6-Methyl-4-(4-trifluoromethyl-phenyl)-pyridin-2-yl]-1,7-diaza-spiro[4.5]decan-6-one hydrochloride], for which the IC50 reads like this: under setting [1], 0.631 µM; under setting [2], 25.1 µM.

For `Cc1cc(-c2ccc(C(F)(F)F)cc2)cc([C@H]2CC[C@@]3(CCCNC3=O)N2)n1` [Example 99, (2R,5R)-2-[6-Methyl-4-(4-trifluoromethyl-phenyl)-pyridin-2-yl]-1,7-diaza-spiro[4.5]decan-6-one hydrochloride], the IC50 is 1 µM under setting [1] and 15.8 µM under setting [2].

As to `Cc1cc(-c2ccc(C(F)(F)F)cc2)cc([C@H]2CC[C@]3(CCCNC3=O)N2)n1` [Example 100, (2R,5S)-2-[6-Methyl-4-(4-trifluoromethyl-phenyl)-pyridin-2-yl]-1,7-diaza-spiro[4.5]decan-6-one hydrochloride], the IC50 reads like this: under setting [1], 0.2 µM; under setting [2], 1 µM.

Take `Cc1cc(-c2ccc(C(F)(F)F)cc2)cc([C@@H]2CC[C@@]3(CCCNC3=O)N2)n1` [Example 101, (2S,5R)-2-[6-Methyl-4-(4-trifluoromethyl-phenyl)-pyridin-2-yl]-1,7-diaza-spiro[4.5]decan-6-one hydrochloride]: the IC50 was 10 µM under setting [1] and 12.6 µM under setting [2].

Regarding `CCOc1ccc(F)c(-c2cc(C)nc([C@@H]3CC[C@]4(CCNC4=O)N3)c2)c1` [Example 102, (2S,5R)-2-[4-(5-Ethoxy-2-fluoro-phenyl)-6-methyl-2-pyridyl]-1,7-diazaspiro[4.4]nonan-6-one hydrochloride], the IC50 by setting is: under setting [1], 2 µM; under setting [2], 25.1 µM.

As for `CCOc1ccc(F)c(-c2cc(C)nc([C@H]3CC[C@]4(CCNC4=O)N3)c2)c1` [Example 103, (2R,5R)-2-[4-(5-Ethoxy-2-fluoro-phenyl)-6-methyl-2-pyridyl]-1,7-diazaspiro[4.4]nonan-6-one hydrochloride], the IC50 under setting [1] was 0.126 µM and the IC50 under setting [2] is 2.51 µM.

With `CCOc1ccc(F)c(-c2cc(C)nc([C@H]3CC[C@@]4(CCNC4=O)N3)c2)c1` [Example 104, (2R,5S)-2-[4-(5-Ethoxy-2-fluoro-phenyl)-6-methyl-2-pyridyl]-1,7-diazaspiro[4.4]nonan-6-one hydrochloride], the IC50 runs as follows: under setting [1], 0.158 µM; under setting [2], 1.58 µM.

On to `CCOc1ccc(F)c(-c2cc(C)nc([C@@H]3CC[C@@]4(CCNC4=O)N3)c2)c1` [Example 105, (2S,5S)-2-[4-(5-Ethoxy-2-fluoro-phenyl)-6-methyl-2-pyridyl]-1,7-diazaspiro[4.4]nonan-6-one hydrochloride], for which the IC50 by setting is: under setting [1], 2 µM; under setting [2], 25.1 µM.

In the case of `CCOc1ccc(F)c(-c2ccnc([C@@H]3CC[C@]4(CCCNC4=O)N3)c2)c1` [Example 106, (2S,5S)-2-[4-(5-Ethoxy-2-fluoro-phenyl)-pyridin-2-yl]-1,7-diaza-spiro[4.5]decan-6-one hydrochloride], the IC50 reads like this: under setting [1], 2 µM; under setting [2], 5.01 µM.

On to `CCOc1ccc(F)c(-c2ccnc([C@H]3CC[C@]4(CCCNC4=O)N3)c2)c1` [Example 107, (2R,5S)-2-[4-(5-Ethoxy-2-fluoro-phenyl)-pyridin-2-yl]-1,7-diaza-spiro[4.5]decan-6-one hydrochloride], for which the IC50 is 0.2 µM under setting [1] and 1.58 µM under setting [2].

For the compound `CCOc1ccc(F)c(-c2ccnc([C@H]3CC[C@@]4(CCCNC4=O)N3)c2)c1` [Example 108, (2R,5R)-2-[4-(5-Ethoxy-2-fluoro-phenyl)-pyridin-2-yl]-1,7-diaza-spiro[4.5]decan-6-one hydrochloride], the IC50 by setting is: under setting [1], 0.0631 µM; under setting [2], 1.26 µM.

In the case of `CCOc1ccc(F)c(-c2ccnc([C@@H]3CC[C@@]4(CCCNC4=O)N3)c2)c1` [Example 109, (2S,5R)-2-[4-(5-Ethoxy-2-fluoro-phenyl)-pyridin-2-yl]-1,7-diaza-spiro[4.5]decan-6-one hydrochloride], the IC50 under setting [1] is 1 µM and the IC50 under setting [2] is 2 µM.

For the compound `O=C1NCCC[C@@]12CC[C@@H](c1cc(-c3ccc(F)cc3)ccn1)N2` [Example 110, (2S,5R)-2-[4-(4-Fluoro-phenyl)-pyridin-2-yl]-1,7-diaza-spiro[4.5]decan-6-one hydrochloride], the IC50 was 10 µM under setting [1] and 251 µM under setting [2].

As to `O=C1NCCC[C@@]12CC[C@H](c1cc(-c3ccc(F)cc3)ccn1)N2` [Example 111, (2R,5R)-2-[4-(4-Fluoro-phenyl)-pyridin-2-yl]-1,7-diaza-spiro[4.5]decan-6-one hydrochloride], the IC50 is, setting by setting: under setting [1], 63.1 µM; under setting [2], 200 µM.

Consider `O=C1NCCC[C@]12CC[C@H](c1cc(-c3ccc(F)cc3)ccn1)N2` [Example 112, (2R,5S)-2-[4-(4-Fluoro-phenyl)-pyridin-2-yl]-1,7-diaza-spiro[4.5]decan-6-one hydrochloride], for which the IC50 runs as follows: under setting [1], 3.98 µM; under setting [2], 39.8 µM.

Turning to `O=C1NCCC[C@]12CC[C@@H](c1cc(-c3ccc(F)cc3)ccn1)N2` [Example 113, (2S,5S)-2-[4-(4-Fluoro-phenyl)-pyridin-2-yl]-1,7-diaza-spiro[4.5]decan-6-one hydrochloride], the IC50 reads like this: under setting [1], 50.1 µM; under setting [2], 200 µM.

As for `O=C1NCC[C@]12CC[C@@H](c1cc(-c3ccc(C(F)(F)F)cc3)ccn1)N2` [Example 114, (2S,5R)-2-[4-[4-(Trifluoromethyl)phenyl]-2-pyridyl]-1,7-diazaspiro[4.4]nonan-6-one hydrochloride], the IC50 runs as follows: under setting [1], 15.8 µM; under setting [2], 79.4 µM.

As for `O=C1NCC[C@]12CC[C@H](c1cc(-c3ccc(C(F)(F)F)cc3)ccn1)N2` [Example 115, (2R,5R)-2-[4-[4-(Trifluoromethyl)phenyl]-2-pyridyl]-1,7-diazaspiro[4.4]nonan-6-one hydrochloride], the IC50 was 2.51 µM under setting [1] and 31.6 µM under setting [2].

For the compound `O=C1NCC[C@]12CC[C@@H](c1cc(-c3cccc(OC(F)(F)F)c3)ccn1)N2` [Example 116, (2S,5R)-2-[4-[3-(Trifluoromethoxy)phenyl]-2-pyridyl]-1,7-diazaspiro[4.4]nonan-6-one hydrochloride], the IC50 under setting [1] is 10 µM and the IC50 under setting [2] was 79.4 µM.

Take `O=C1NCC[C@]12CC[C@H](c1cc(-c3cccc(OC(F)(F)F)c3)ccn1)N2` [Example 117, (2R,5R)-2-[4-[3-(Trifluoromethoxy)phenyl]-2-pyridyl]-1,7-diazaspiro[4.4]nonan-6-one hydrochloride]: the IC50 by setting is: under setting [1], 0.398 µM; under setting [2], 7.94 µM.

`O=C1NCC[C@@]12CC[C@H](c1cc(-c3cccc(OC(F)(F)F)c3)ccn1)N2` [Example 118, (2R,5S)-2-[4-[3-(Trifluoromethoxy)phenyl]-2-pyridyl]-1,7-diazaspiro[4.4]nonan-6-one hydrochloride]: the IC50 runs as follows: under setting [1], 7.94 µM; under setting [2], 50.1 µM.
